The nature of assay [1]: Binding affinity to G.A-20 DNA duplex by CD titration.
Assay [2] can be described thus: Binding affinity to T.A-20 DNA duplex by CD titration.
A short description of assay [3]: Binding affinity to OG.A-20 DNA duplex by CD titration.
A short description of assay [4]: Binding affinity to MG.C-20 DNA duplex by CD titration.
Assay [5] is described as follows: Binding affinity to AP.A-20 DNA duplex by CD titration.

pKd: −log10 of the molar value.

As to `Cn1cc(NC(=O)c2cc(NC(=O)c3cc(NC=O)cn3C)cn2C)cc1C(=O)NCCC(=N)N` [STALLIMYCIN], the pKd in assay [1] was 5.43; in assay [2] it was 6.43; in assay [3], 6.70; in assay [4], 5.12; in assay [5], 5.70.
